In PMC9105233, “The Nitrogen Atom of Vitamin B6 Is Essential for the Catalysis of Radical Aminomutases” (International Journal of Molecular Sciences, 2022):

Target: T1, lysine 5,6-aminomutase (5,6-LAM) (Acetoanaerobium sticklandii, UniProt E3PRJ4+E3PRJ5)
T1 construct: gene kamD
Details: dAdoCbl, NH4-EPPS pH 8.5, reaction 4 min, PLP analogue replacing PLP

T1 sequence (E3PRJ5 whole entry): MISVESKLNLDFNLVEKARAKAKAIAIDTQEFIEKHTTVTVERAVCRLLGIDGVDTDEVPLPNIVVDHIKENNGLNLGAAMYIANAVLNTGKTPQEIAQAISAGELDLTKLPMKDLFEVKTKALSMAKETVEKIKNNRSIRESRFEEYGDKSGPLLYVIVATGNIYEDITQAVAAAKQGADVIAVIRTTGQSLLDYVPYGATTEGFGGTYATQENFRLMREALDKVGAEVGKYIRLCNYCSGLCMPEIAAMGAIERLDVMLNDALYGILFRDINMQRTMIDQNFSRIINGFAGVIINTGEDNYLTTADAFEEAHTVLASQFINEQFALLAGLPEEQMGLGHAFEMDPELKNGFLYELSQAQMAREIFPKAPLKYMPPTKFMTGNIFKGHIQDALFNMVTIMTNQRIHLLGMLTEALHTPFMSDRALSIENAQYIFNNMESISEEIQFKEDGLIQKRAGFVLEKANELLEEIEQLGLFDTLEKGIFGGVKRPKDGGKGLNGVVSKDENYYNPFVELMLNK
T1 sequence (E3PRJ4 whole entry): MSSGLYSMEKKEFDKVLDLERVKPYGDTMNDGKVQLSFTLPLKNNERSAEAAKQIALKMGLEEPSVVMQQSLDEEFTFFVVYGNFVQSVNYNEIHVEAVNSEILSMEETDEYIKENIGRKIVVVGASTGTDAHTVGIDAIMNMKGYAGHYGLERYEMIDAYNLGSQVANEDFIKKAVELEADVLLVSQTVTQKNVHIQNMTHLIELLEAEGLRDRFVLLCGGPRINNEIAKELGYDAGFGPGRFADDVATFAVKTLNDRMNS

## Cc1ccc(COP(=O)(O)O)c(C=O)c1O [dAPLP]
  EPR of substrate-related radical with 4-thia-L-lysine: this spectrum obtained with dAPLP can be attributed to the corresponding S^•
